In PubChem BioAssay AID1963833 (Molecular Pharmacology Branch, DTP, NCI, 2024):
pIC50: −log10 of the molar value.

System: 883617-216-R-J1-PDC complex spheroid viability
Test: Anticancer human tumor 883617-216-R-J1-PDC patient-derived bladder carcinoma cell line growth inhibition [POLQ]
Conditions: for pIC50: curve of first compound; for viability, T/C: stronger effect = lower value
Protocol: Multicellular complex tumor spheroid response to Polymerase (POL) inhibitors (novobiocin, ART-558, RP6685) in combination with a variety of drugs and investigational agents in selected tumor cell lines
The POL inhibitors (novobiocin, ART-558, and RP6685) were evaluated both individually and in combination with standard of care and investigational anticancer small molecules within a complex spheroid model of solid tumors. . Complex spheroids include a stromal component modeled by human endothelial cells (HUVEC) and fibroblasts modeled by human mesenchymal stem cells (MSCs). The concentration ranges selected for each drug and investigational agent were based upon clinically achievable concentrations if the clinical Cmax of the agent was known.
Compounds. The drugs and investigational agents: novobiocin (NSC847541), ART-558 (NSC835418), RP-6685 (NSC848927), peposertib (NSC802822), ceralasertib (NSC780249), elimusertib (NSC800525), camonsertib (NSC841442), AZD-1390 (NSC803789), olaparib (NSC753686), talazoparib (NSC767125), rucaparib (NSC756644), sotorasib (NSC818433), MRTX-1133 (NSC836407), SN-38 (NSC673596), topotecan (NSC609699), epotoside (NSC141540), doxorubicin (NSC123127), gemcitabine (NSC613327), 5-fluorouracil (NSC19893), paclitaxel (NSC125973), vemurafenib (NSC761431), MSA-2 (NSC828583), SN-011 (NSC837082), adavosertib (NSC754352), prexasertib (NSC758257), carboplatin (NSC241240) and oxaliplatin (NSC266046), were obtained from the National Cancer Institute (NCI) Developmental Therapeutics Program Chemical Repository (21). The FDA-approved anticancer drug set is available from the Developmental Therapeutics Program at https://dtp.cancer.gov/organization/dscb/obtaining/. […] The stock solutions were prepared in dimethyl sulfoxide (DMSO, Sigma-Aldrich, St. Louis, MO, cat. D2650), except for the platinum compounds which were prepared in saline (Quality Biological, Gaithersburg, MD, cat. 114-055-101), at 800-fold the tested concentration and stored at -70 degrees C prior to their use. All drugs and investigational agents were tested over a range starting from a high concentration at or near the clinical Cmax and decreasing in half-log increments. If the clinical Cmax for an agent had not been determined, the highest concentration tested was 10 microM, except for SN-38, which was tested at a high concentration of 1 microM.
Cell Culture. All cells were maintained in an incubator at 37 degrees C and 5% CO2 with 95% humidity. The PDC lines were cultured according to standard operating procedures established by the NCI PDMR (https://pdmr.cancer.gov). Table 3 of the manuscript, lists the cell lines along with the number of the three cell types plated to form the mct-spheroids and media for tumor cell growth. After thawing, all PDC lines, except 997537-175-T-J1-PDC and 415267-285-R-J2-PDC, were cultured in Matrigel-coated flasks prepared with a working solution of 1X Ham's F-12 nutrient mix, without supplementation (Thermo Fisher Scientific, cat. 11765054), 100 U/mL penicillin-streptomycin (Thermo Fisher Scientific, cat. 15140122), and 2.5% Matrigel (Corning Inc., Corning, NY, cat. 354248) for the first three passages. The two PDC lines 997537-175-T-J1-PDC and 415267-285-R-J2-PDC were cultured on uncoated flasks. The 857933-349-R-J2-PDC line was cultured in 6C/Colon 1B media containing advanced DMEM/F-12 (Thermo Fisher Scientific, cat. 12634028), 10 mM HEPES (Thermo Fisher Scientific, cat. 15630080), 1X GlutaMAX supplement (Thermo Fisher Scientific, cat. 35050061), 0.1 mg/mL primocin (InvivoGen, San Diego, CA, cat. ant-pm-2), 10% defined fetal bovine serum, heat inactivated (HyClone Laboratories Inc., Logan, UT, cat. SH30070.03HI), 50% L-WRN conditioned media (ATCC, cat. CRL-3276), 1.25 mM N-Acetyl-L-cysteine (Sigma-Aldrich, cat. A9165), 10 mM nicotinamide (Sigma-Aldrich, cat. N0636), 1X B-27 supplement (Thermo Fisher Scientific, cat. 17504044), 1X N-2 supplement (Thermo Fisher Scientific, cat. […]

[1] = second compound 0.0316 µM, first compound 0.0316 µM
[2] = second compound 0.0316 µM, first compound 0.1 µM
[3] = second compound 0.0316 µM, first compound 0.316 µM
[4] = second compound 0.0316 µM, first compound 1 µM
[5] = second compound 0.0316 µM, first compound 3.16 µM
[6] = second compound 0.0316 µM, first compound 10 µM
[7] = second compound 0.1 µM, first compound 0.0316 µM
[8] = second compound 0.1 µM, first compound 0.1 µM
[9] = second compound 0.1 µM, first compound 0.316 µM
[10] = second compound 0.1 µM, first compound 1 µM
[11] = second compound 0.1 µM, first compound 3.16 µM
[12] = second compound 0.1 µM, first compound 10 µM
[13] = second compound 0.316 µM, first compound 0.0316 µM
[14] = second compound 0.316 µM, first compound 0.1 µM
[15] = second compound 0.316 µM, first compound 0.316 µM
[16] = second compound 0.316 µM, first compound 1 µM
[17] = second compound 0.316 µM, first compound 3.16 µM
[18] = second compound 0.316 µM, first compound 10 µM
[19] = second compound 1 µM, first compound 0.0316 µM
[20] = second compound 1 µM, first compound 0.1 µM
[21] = second compound 1 µM, first compound 0.316 µM
[22] = second compound 1 µM, first compound 1 µM
[23] = second compound 1 µM, first compound 3.16 µM
[24] = second compound 1 µM, first compound 10 µM
[25] = second compound 3.16 µM, first compound 0.0316 µM
[26] = second compound 3.16 µM, first compound 0.1 µM
[27] = second compound 3.16 µM, first compound 0.316 µM
[28] = second compound 3.16 µM, first compound 1 µM
[29] = second compound 3.16 µM, first compound 3.16 µM
[30] = second compound 3.16 µM, first compound 10 µM
[31] = second compound 10 µM, first compound 0.0316 µM
[32] = second compound 10 µM, first compound 0.1 µM
[33] = second compound 10 µM, first compound 0.316 µM
[34] = second compound 10 µM, first compound 1 µM
[35] = second compound 10 µM, first compound 3.16 µM
[36] = second compound 10 µM, first compound 10 µM
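Further: spheroids exposed to compounds for seven days before readout.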
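Wherever viability, T/C is given: 100% = DMSO vehicle control viability.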

Q: Which results are given for Nc1ccn(C2OC(CO)C(O)C2(F)F)c(=O)n1 (centres undefined) + COC1C(OC(N)=O)C(O)C(Oc2ccc3c(O)c(NC(=O)c4ccc(O)c(CC=C(C)C)c4)c(=O)oc3c2C)OC1(C)C?
A: pIC50 (second compound 0.0316 µM): > 7.50; pIC50 (second compound 0.1 µM): > 7.50; pIC50 (second compound 0.316 µM): > 7.50; pIC50 (second compound 1 µM): > 7.50; pIC50 (second compound 3.16 µM): > 7.50; pIC50 (second compound 10 µM): > 7.50; viability, T/C [1]: 25.9%; viability, T/C [2]: 30%; viability, T/C [3]: 35.5%; viability, T/C [4]: 36.7%; viability, T/C [5]: 28.9%; viability, T/C [6]: 36.5%; viability, T/C [7]: 31%; viability, T/C [8]: 34.8%; viability, T/C [9]: 47%; viability, T/C [10]: 39%; viability, T/C [11]: 38.2%; viability, T/C [12]: 31.2%; viability, T/C [13]: 25.5%; viability, T/C [14]: 35.1%; viability, T/C [15]: 36.9%; viability, T/C [16]: 34.3%; viability, T/C [17]: 40.6%; viability, T/C [18]: 32.1%; viability, T/C [19]: 28.8%; viability, T/C [20]: 37.7%; viability, T/C [21]: 42.1%; viability, T/C [22]: 41.7%; viability, T/C [23]: 31.1%; viability, T/C [24]: 26.9%; viability, T/C [25]: 30.6%; viability, T/C [26]: 32.6%; viability, T/C [27]: 39.9%; viability, T/C [28]: 33.5%; viability, T/C [29]: 35.2%; viability, T/C [30]: 28%; viability, T/C [31]: 29.3%; viability, T/C [32]: 31.3%; viability, T/C [33]: 34.9%; viability, T/C [34]: 35%; viability, T/C [35]: 32.3%; viability, T/C [36]: 32.1%

Q: How did the pIC50 (second compound 0.0316 µM) turn out when O=C(Nc1ccc(O)c(NS(=O)(=O)c2ccc(F)cc2)c1)c1ccc(-c2ccccc2)cc1 + COC1C(OC(N)=O)C(O)C(Oc2ccc3c(O)c(NC(=O)c4ccc(O)c(CC=C(C)C)c4)c(=O)oc3c2C)OC1(C)C was run?
A: < 5.00

Q: What about the pIC50 (second compound 0.1 µM) of the same molecule?
A: < 5.00

Q: What about the pIC50 (second compound 0.316 µM) of the same molecule?
A: < 5.00

Q: And the pIC50 (second compound 1 µM)?
A: < 5.00

Q: What about the pIC50 (second compound 3.16 µM) of the same molecule?
A: < 5.00

Q: What about the pIC50 (second compound 10 µM) of the same molecule?
A: < 5.00

Q: What about the viability, T/C [1] of the same molecule?
A: 95.1%

Q: And the viability, T/C [2]?
A: 90.8%

Q: What about the viability, T/C [3] of the same molecule?
A: 83.6%

Q: And the viability, T/C [4]?
A: 84.6%

Q: And the viability, T/C [5]?
A: 95.9%

Q: And the viability, T/C [6]?
A: 64.9%

Q: What about the viability, T/C [7] of the same molecule?
A: 81.6%

Q: And the viability, T/C [8]?
A: 100%

Q: And the viability, T/C [9]?
A: 81%

Q: And the viability, T/C [10]?
A: 89.6%

Q: And the viability, T/C [11]?
A: 81.3%

Q: What about the viability, T/C [12] of the same molecule?
A: 62.4%

Q: And the viability, T/C [13]?
A: 88.1%

Q: What about the viability, T/C [14] of the same molecule?
A: 104%

Q: What about the viability, T/C [15] of the same molecule?
A: 83.8%

Q: What about the viability, T/C [16] of the same molecule?
A: 90.1%

Q: And the viability, T/C [17]?
A: 89.5%

Q: And the viability, T/C [18]?
A: 53.2%

Q: And the viability, T/C [19]?
A: 86.4%

Q: What about the viability, T/C [20] of the same molecule?
A: 86.5%

Q: And the viability, T/C [21]?
A: 93.3%

Q: What about the viability, T/C [22] of the same molecule?
A: 90.4%

Q: And the viability, T/C [23]?
A: 81.7%

Q: And the viability, T/C [24]?
A: 62.9%

Q: And the viability, T/C [25]?
A: 88.9%

Q: And the viability, T/C [26]?
A: 96.4%

Q: What about the viability, T/C [27] of the same molecule?
A: 97.3%

Q: And the viability, T/C [28]?
A: 73.5%

Q: What about the viability, T/C [29] of the same molecule?
A: 77%

Q: And the viability, T/C [30]?
A: 65.7%

Q: What about the viability, T/C [31] of the same molecule?
A: 103%

Q: What about the viability, T/C [32] of the same molecule?
A: 87.5%

Q: And the viability, T/C [33]?
A: 98.3%

Q: And the viability, T/C [34]?
A: 83.2%

Q: And the viability, T/C [35]?
A: 89.7%

Q: What about the viability, T/C [36] of the same molecule?
A: 70.4%
